What was measured:
[1] = system: Microvascular Endothelial Cells (MVEC); assay: MTT growth inhibition of MVEC; type: cell-based; details: Endothelial cell, 96 h, 4 days culture with drug, read-out: IG50 on inhibiting growth of MVEC
Procedure: In Vitro Anti-Tumor Activity Test
Put cell suspension into centrifugal tubes with a pipette under sterile conditions, then the cell suspension was centrifuged for 3 minutes at 1300 rpm. Discarded the supernatant lightly and added fresh culture medium. Mixed the cells by pipetting, then transferred the cells into culture flasks, and put them into the CO2 incubator. Changed the culture medium once after 24 hours.
Human prostate cancer cells (DU145, PC-3) were cultured in a medium containing RPMI1640 basic medium supplemented with 10% heat-inactivated FBS, 100 IU/mL penicillin, 100 μg/mL streptomycin and 1 mmol/L L-glutamine. Human breast carcinoma cells (T47D, MDA-MB231) were cultured in a medium containing RPM11640 basic medium supplemented with 10% heat-inactivated FBS, 5 μg/mL insulin, 100 IU/mL penicillin, 100 μg/mL streptomycin and 1 mmol/L L-glutamine. Human breast carcinoma cells (MCF-7) were cultured in a medium containing DMEM basic medium supplemented with 10% heat-inactivated FBS, 5 μg/mL insulin, 100 IU/mL penicillin, 100 μg/mL streptomycin and […]. Murine Lewis lung cancer cells (LL/2), murine melanoma cells (B16FD) and Microvascular Endothelial Cells (MVEC) were cultured in a medium containing DMEM basic medium supplemented with 10% heat-inactivated FBS, 4.5 g/L glucose, 1.5 g/L NaHCO3, 100 IU/mL penicillin, 100 μg/mL streptomycin and 4 mmol/L L-glutamine. All these cell lines were incubated at 37° C. biochemical incubator with 5% CO2 saturated humidity.
After resuscitation, the cells were passed for 2-3 generations till they became stable, then they were used for the experiments. Each passage was based on the standard that all cells were spread over the bottoms of culture flasks.
Cells were digested off from the bottoms of culture flasks with trypsin (0.25%). The cell dissociation buffer was transferred into centrifuge tubes, added medium to stop the digestion, and centrifuged for 3 minutes at 1300 rpm. Discarded the supernatant lightly and added fresh culture medium (5 mL). Mixed the cells by pipetting, then added 10 μL of the cell suspension into the cell counting plate, and adjusted the cell concentration to 2×10^4 cells/mL. Added 100 μL of the cell suspension to all wells on the 96 well plates, except A1 well as the blank control. Put the plates into the biochemical incubator for 24 hours and to make sure the cells grew along the walls.
The drugs were dissolved in 80 mmol/L DMSO first, and then diluted the drugs with ethanol to 8 mmol/L. The solution was further diluted with the culture medium to different concentrations as 160 μmol/L, 120 μmol/L, 80 μmol/L, 40 μmol/L, 20 μmol/L and 10 μmol/L. Added 100 μL of the drug solution to each well on the 96 well plates. Therefore, the final concentrations of the drugs that were added to the cells were 80 μmol/L, 40 μmol/L, 20 μmol/L, 10 μmol/L and 5 μmol/L, and each concentration were repeated in three parallel wells. Put the culture plates into the biochemical incubator to culture continuously for 4 days.
Added 50 μL MTT liquids (2 mg/mL) into each well, put the culture plates into the biochemical incubator for 4 h, discarded MTT liquids (TCC), added 200 μL DMSO, then oscillated for 10 minutes on the magnetic oscillator to make sure that the survived cells and the reaction product of MTT were fully dissolved. Detected and recorded the absorbance (OD) values of each well at the wavelength of 570 nm using the microplate reader. The OD values of cells without tested drugs were used as control. The cell growth inhibition rates under each drug concentration were calculated by the following formula. […] Inhibition rate of growth(%)=(1−The absorbance(OD)of cells with tested drugs/The absorbance(OD)of the blank control group)×100%
The absorbance (OD) of cells with tested drugs: OD value is measured with the test drugs.
The absorbance (OD) of the blank control group: OD value is measured without the test drugs. […]

VEGFR-2 = VEGFR-2 (Homo sapiens, UniProt P35968); assay: VEGFR-2 inhibition rate test (kinase assay kit, colorimetric ELISA); details: concentration not given
VEGFR-2, sequence (P35968 20-1356): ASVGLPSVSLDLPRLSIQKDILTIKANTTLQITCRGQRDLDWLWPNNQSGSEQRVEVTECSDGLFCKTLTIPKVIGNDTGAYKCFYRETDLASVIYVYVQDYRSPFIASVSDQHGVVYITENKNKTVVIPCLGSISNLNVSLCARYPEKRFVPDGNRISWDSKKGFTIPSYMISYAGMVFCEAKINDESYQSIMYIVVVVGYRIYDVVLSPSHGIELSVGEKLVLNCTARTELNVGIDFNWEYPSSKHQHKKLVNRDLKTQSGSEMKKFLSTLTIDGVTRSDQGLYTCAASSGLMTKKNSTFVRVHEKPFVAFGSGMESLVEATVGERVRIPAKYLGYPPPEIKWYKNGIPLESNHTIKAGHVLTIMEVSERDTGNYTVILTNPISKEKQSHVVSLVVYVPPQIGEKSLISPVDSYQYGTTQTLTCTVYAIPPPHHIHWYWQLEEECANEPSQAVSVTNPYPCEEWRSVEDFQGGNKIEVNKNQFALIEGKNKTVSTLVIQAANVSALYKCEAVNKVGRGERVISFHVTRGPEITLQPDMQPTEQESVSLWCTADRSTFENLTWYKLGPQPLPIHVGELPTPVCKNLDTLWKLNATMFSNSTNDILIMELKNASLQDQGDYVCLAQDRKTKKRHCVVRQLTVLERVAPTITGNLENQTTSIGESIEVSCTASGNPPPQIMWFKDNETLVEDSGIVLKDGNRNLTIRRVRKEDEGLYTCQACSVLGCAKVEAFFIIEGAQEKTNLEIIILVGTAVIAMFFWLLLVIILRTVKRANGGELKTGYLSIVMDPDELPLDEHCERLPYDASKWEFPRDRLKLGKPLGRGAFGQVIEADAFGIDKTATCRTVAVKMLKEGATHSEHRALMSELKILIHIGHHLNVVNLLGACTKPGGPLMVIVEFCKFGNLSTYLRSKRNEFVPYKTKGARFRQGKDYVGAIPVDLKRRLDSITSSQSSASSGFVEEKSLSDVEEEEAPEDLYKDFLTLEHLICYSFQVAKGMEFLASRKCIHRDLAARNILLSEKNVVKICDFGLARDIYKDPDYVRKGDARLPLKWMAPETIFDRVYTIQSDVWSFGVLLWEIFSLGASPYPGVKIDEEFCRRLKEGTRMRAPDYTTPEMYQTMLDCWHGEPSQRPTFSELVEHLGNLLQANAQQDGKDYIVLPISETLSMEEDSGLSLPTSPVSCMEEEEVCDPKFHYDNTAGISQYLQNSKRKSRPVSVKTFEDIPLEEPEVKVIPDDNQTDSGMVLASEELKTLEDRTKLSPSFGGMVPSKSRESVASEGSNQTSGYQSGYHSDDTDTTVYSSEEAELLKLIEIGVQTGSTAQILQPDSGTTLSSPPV

Row | Structure (SMILES) | IC50 [1] | Kinase inhibition rate (VEGFR-2) (VEGFR-2)
1 | CCCCOc1cc2nnnc(Nc3cccc(Br)c3)c2cc1OC [Example 25, 6-methoxy-7-n-butoxy-4-(3-bromoanilino)-benzo[d][1,2,3]triazine] | 16.8 µM | 5.61
2 | CCOc1cc2nnnc(Nc3ccc(Cl)c(Cl)c3)c2cc1OC [Example 32, 6-methoxy-7-ethoxy-4-(3,4-dichloroanilino)-benzo[d][1,2,3]triazine] | 14.3 µM | –
3 | CCOc1cc2nnnc(Nc3ccc(Cl)cc3)c2cc1OC [Example 33, 6-methoxy-7-ethoxy-4-(4-chloroanilino)-benzo[d][1,2,3]triazine] | 26.5 µM | –
4 | CCCCCOc1cc2nnnc(Nc3ccc(Cl)c(Cl)c3)c2cc1OC [Example 48, 6-methoxy-7-pentyloxy-4-(3,4-dichloroanilino)-benzo[d][1,2,3]triazine] | 16.9 µM | −21.65
5 | CCCCCOc1cc2nnnc(Nc3ccc(Cl)cc3)c2cc1OC [Example 49, 6-methoxy-7-pentyloxy-4-(4-chloroanilino)-benzo[d][1,2,3]triazine] | 25.3 µM | –
6 | CCCCCOc1cc2nnnc(Nc3ccc(F)c(Cl)c3)c2cc1OC [Example 55, 6-methoxy-7-pentyloxy-4-(3-chloro-4-fluoroanilino)benzo[d][1,2,3]triazine] | 14.8 µM | −0.53
7 | CCCCCOc1cc2nnnc(Nc3ccc(F)c(C(F)(F)F)c3)c2cc1OC [Example 56, 6-methoxy-7-pentyloxy-4-(3-trifluoromethyl-4-fluoroanilino)-benzo[d][1,2,3]triazine] | 16.3 µM | −3.74
8 | COc1cc2c(Nc3cc(Cl)cc(Cl)c3)nnnc2cc1OCCCCl [Example 63, 6-methoxy-7-chloropropoxy-4-(3,5-dichloroanilino)-benzo[d][1,2,3]triazine] | 28.8 µM | −9.97
9 | COc1cc2c(Nc3ccc(Cl)c(Cl)c3)nnnc2cc1OCCCCl [Example 65, 6-methoxy-7-chloropropoxy-4-(3,4-dichloroanilino)-benzo[d][1,2,3]triazine] | 11 µM | –
10 | COc1cc2c(Nc3ccc(Cl)cc3)nnnc2cc1OCCCCl [Example 66, 6-methoxy-7-chloropropoxy-4-(4-chloroanilino)-benzo[d][1,2,3]triazine] | 38.6 µM | −10.15
11 | COc1cc2c(Nc3cccc(OC(F)(F)F)c3)nnnc2cc1OCCCCl [Example 69, 6-methoxy-7-chloropropoxy-4-(3-trifluoromethoxyanilino)-benzo[d][1,2,3]triazine] | 24.9 µM | −14.75
12 | COc1cc2c(Nc3ccc(F)c(C(F)(F)F)c3)nnnc2cc1OCCCCl [Example 73, 6-methoxy-7-chloropropoxy-4-(3-trifluoromethyl-4-fluoroanilino)-benzo[d][1,2,3]triazine] | 15.2 µM | 2.40
13 | Fc1ccc(Nc2nnnc3ccc(Cl)nc23)cc1Cl [Example 89, 6-chloro-4-(3-chloro-4-fluoroanilino)pyrido[3,2-d][1,2,3]triazine] | 9.85 µM | −0.25
